Data reported in the supplement of paper PMC10307832.

Experiments:
Assay in all cases: relative viability (nuclei count vs DMSO), 5 days (fraction); higher = more cells survive
BI-D1870 + Alpelisib = compound: CC(C)CCN1c2nc(Nc3cc(F)c(O)c(F)c3)ncc2N(C)C(=O)C1C [BI-D1870] + Cc1nc(NC(=O)N2CCC[C@H]2C(N)=O)sc1-c1ccnc(C(C)(C)C(F)(F)F)c1 [Alpelisib] (partner 2 µM)
Method in brief: (§1)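 Relative viability equals treated-well nuclei counts divided by vehicle-well nuclei counts. Counts came from 4× images of lung cancer cell lines grown in 1536-well plates for 5 days after pin-tool dosing on the day after seeding. Dosing used one drug alone or a fixed anchor-drug dose plus five library-drug doses (not always all listed) in √10 steps, and values are medians of duplicate plates.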

BI-D1870 + Dasatinib = compound: CC(C)CCN1c2nc(Nc3cc(F)c(O)c(F)c3)ncc2N(C)C(=O)C1C [BI-D1870] + Cc1nc(Nc2ncc(C(=O)Nc3c(C)cccc3Cl)s2)cc(N2CCN(CCO)CC2)n1 [Dasatinib] (partner 0.075 µM)
Method in brief: as §1

Zebularine + Foretinib = compound: O=c1ncccn1[C@@H]1O[C@H](CO)[C@@H](O)[C@H]1O [Zebularine] + COc1cc2c(Oc3ccc(NC(=O)C4(C(=O)Nc5ccc(F)cc5)CC4)cc3F)ccnc2cc1OCCCN1CCOCC1 [Foretinib] (partner 0.25 µM)
Method in brief: as §1

Zebularine + Crizotinib = compound: O=c1ncccn1[C@@H]1O[C@H](CO)[C@@H](O)[C@H]1O [Zebularine] + C[C@@H](Oc1cc(-c2cnn(C3CCNCC3)c2)cnc1N)c1c(Cl)ccc(F)c1Cl [Crizotinib] (partner 1 µM)
Method in brief: as §1

| Cell Line | relative viability (BI-D1870 + Alpelisib; first compound 0.04 µM) | relative viability (BI-D1870 + Alpelisib; first compound 0.1265 µM) | relative viability (BI-D1870 + Alpelisib; first compound 0.4 µM) | relative viability (BI-D1870 + Alpelisib; first compound 1.265 µM) | relative viability (BI-D1870 + Alpelisib; first compound 4 µM) | relative viability (BI-D1870 + Dasatinib; first compound 0.04 µM) | relative viability (BI-D1870 + Dasatinib; first compound 0.1265 µM) | relative viability (BI-D1870 + Dasatinib; first compound 0.4 µM) | relative viability (BI-D1870 + Dasatinib; first compound 1.265 µM) | relative viability (BI-D1870 + Dasatinib; first compound 4 µM) | relative viability (Zebularine + Foretinib; first compound 1 µM) | relative viability (Zebularine + Foretinib; first compound 3.162 µM) | relative viability (Zebularine + Foretinib; first compound 10 µM) | relative viability (Zebularine + Foretinib; first compound 31.62 µM) | relative viability (Zebularine + Foretinib; first compound 100 µM) | relative viability (Zebularine + Crizotinib; first compound 1 µM) | relative viability (Zebularine + Crizotinib; first compound 3.162 µM) | relative viability (Zebularine + Crizotinib; first compound 10 µM) | relative viability (Zebularine + Crizotinib; first compound 31.62 µM) | relative viability (Zebularine + Crizotinib; first compound 100 µM) |
| --- | --- | --- | --- | --- | --- | --- | --- | --- | --- | --- | --- | --- | --- | --- | --- | --- | --- | --- | --- | --- |
| LU99A | 0.621 | 0.492 | 0.482 | 0.565 | 0.489 | 0.753 | 0.51 | 0.512 | 0.467 | 0.425 | 0.884 | 0.807 | 0.577 | 0.436 | 0.195 | 0.683 | 0.531 | 0.383 | 0.255 | 0.153 |
| LXF-289 | 1.12 | 0.983 | 1 | 1.02 | 0.899 | 0.254 | 0.239 | 0.216 | 0.223 | 0.244 | 1.09 | 0.984 | 0.847 | 0.626 | 0.241 | 0.835 | 0.828 | 0.714 | 0.622 | 0.238 |
| NCI-H23 | 0.779 | 0.508 | 0.614 | 0.78 | 0.664 | 0.923 | 0.741 | 0.692 | 0.588 | 0.579 | 1.09 | 1.1 | 0.658 | 0.893 | 0.854 | 0.482 | 0.559 | – | 0.456 | 0.5 |
| NCI-H322M | 0.887 | 0.79 | 0.741 | 0.891 | 0.765 | 0.236 | 0.27 | 0.234 | 0.234 | 0.283 | 0.914 | 0.945 | 0.645 | 0.773 | 0.647 | 0.969 | 0.897 | 0.804 | 0.821 | 0.523 |
| NCI-H358 | 0.964 | 0.745 | 0.852 | 0.663 | 0.415 | 0.177 | 0.172 | 0.195 | 0.257 | 0.288 | 0.723 | 0.602 | 0.476 | 0.391 | 0.184 | 0.618 | 0.475 | 0.237 | 0.387 | 0.252 |
| NCI-H441 | 0.915 | 0.675 | 0.955 | 0.572 | 0.434 | 0.763 | 0.544 | 0.575 | 0.651 | 0.671 | 1.72 | 1.03 | 0.684 | 0.361 | 0.258 | 0.874 | 0.657 | 0.289 | 0.173 | 0.219 |
| NCI-H460 | 0.613 | 0.368 | 0.443 | 0.347 | 0.0382 | 0.594 | 0.377 | 0.528 | 0.507 | 0.242 | 1.08 | 0.948 | 0.689 | 0.463 | 0.0513 | 1.06 | 0.987 | 0.273 | 0.375 | 0.1 |
| NCI-H520 | 0.903 | 0.76 | 0.85 | 0.953 | 0.764 | 0.207 | 0.189 | 0.235 | 0.198 | 0.186 | 0.895 | 0.742 | 0.419 | 0.395 | 0.243 | 0.784 | 0.717 | 0.429 | 0.372 | 0.261 |
| NCI-H596 | 0.456 | 0.487 | 0.43 | 0.511 | 0.512 | 0.633 | 0.475 | 0.597 | 0.684 | 0.564 | 0.75 | 0.926 | 0.559 | 0.891 | 0.602 | 0.994 | 0.948 | 0.85 | 0.902 | 0.988 |
| NCI-H647 | 1.1 | 0.985 | 1.16 | 1.07 | 0.896 | 0.184 | 0.113 | 0.243 | 0.23 | 0.208 | 1.03 | 0.979 | 0.333 | 0.198 | 0.167 | 1.18 | 0.981 | 0.254 | 0.142 | 0.228 |
| NCI-H650 | 1.16 | 0.944 | 1.14 | 0.97 | 0.722 | 0.454 | 0.419 | 0.431 | 0.403 | 0.35 | 1.02 | 0.934 | 0.824 | 0.447 | 0.258 | 0.598 | 0.652 | 0.587 | 0.43 | 0.334 |
| NCI-H661 | 0.516 | 0.692 | 0.427 | 0.599 | 0.65 | 1.04 | 0.867 | 0.874 | 0.898 | 0.708 | 0.989 | 1.04 | 0.991 | 1.18 | 1.02 | 1.24 | 1 | 1.02 | 1.05 | 0.997 |
| NCI-H727 | 0.591 | 0.448 | 0.526 | 0.63 | 0.445 | 0.432 | 0.34 | 0.27 | 0.417 | 0.312 | 0.951 | 0.85 | 0.769 | 1.03 | 0.723 | 0.927 | 0.613 | 0.638 | 0.947 | 0.881 |
| NCI-H838 | 1.04 | 0.883 | 0.923 | 1.17 | 1.04 | 0.342 | 0.244 | 0.314 | 0.274 | 0.243 | 1.08 | 1.03 | 0.705 | 0.698 | 0.322 | 0.93 | 0.838 | 0.493 | 0.65 | 0.3 |
| NCI-H1355 | 0.848 | 0.768 | 0.804 | 0.884 | 0.716 | 0.886 | 0.726 | 0.767 | 0.838 | 0.674 | 1.02 | 0.907 | 0.631 | 0.47 | 0.325 | 1.12 | 0.966 | 0.87 | 0.404 | 0.315 |
| NCI-H1437 | 1.1 | 0.964 | 0.911 | 0.993 | 0.754 | 0.46 | 0.343 | 0.413 | 0.394 | 0.285 | 1.33 | 1.29 | 1.04 | 1.21 | 0.653 | 1.09 | 0.987 | – | 0.902 | 0.31 |
| NCI-H1563 | 0.946 | 0.863 | 0.982 | 0.897 | 0.945 | 0.456 | 0.434 | 0.425 | 0.506 | 0.477 | 0.915 | 0.952 | 0.922 | 0.991 | 0.898 | 0.877 | 0.873 | 0.849 | 0.935 | 0.828 |
| NCI-H1651 | 1.04 | 0.939 | 1 | 0.942 | 0.941 | 0.405 | 0.293 | 0.345 | 0.297 | 0.237 | 0.856 | 0.93 | 0.511 | 0.738 | 0.374 | 0.919 | 0.893 | 0.604 | 0.745 | 0.514 |
| NCI-H1666 | 0.77 | 0.767 | 0.987 | 1.14 | 0.816 | 0.839 | 0.84 | 0.701 | 0.824 | 0.744 | 0.94 | 0.919 | 0.805 | 0.999 | 0.805 | 1.01 | 0.783 | 1.05 | 1.02 | 0.596 |
| NCI-H1734 | 0.778 | 0.619 | 0.683 | 0.75 | 0.597 | 0.464 | 0.455 | 0.436 | 0.471 | 0.484 | 0.931 | 0.864 | 0.631 | 0.529 | 0.299 | 0.71 | 0.696 | 0.391 | 0.384 | 0.295 |
| NCI-H1755 | 0.973 | 0.852 | 0.983 | 0.968 | 0.869 | 0.511 | 0.408 | 0.407 | 0.567 | 0.442 | 0.925 | 0.918 | 0.854 | 0.992 | 0.591 | 1.03 | 0.872 | 0.612 | 0.864 | 0.466 |
| NCI-H1915 | 1.03 | 1.07 | 1.03 | 1.06 | 1 | 0.356 | 0.276 | 0.294 | 0.274 | 0.261 | 1.3 | 1.11 | – | 1.26 | 0.984 | 1.18 | 0.911 | 0.649 | 0.926 | 0.698 |
| NCI-H1944 | 0.907 | 0.803 | 0.817 | 0.927 | 0.861 | 0.216 | 0.214 | 0.215 | 0.253 | 0.238 | 0.966 | 0.859 | 0.858 | 0.81 | 0.649 | 1.21 | 1.06 | 0.681 | 0.87 | 0.666 |
| NCI-H1975 | 0.646 | 0.572 | 0.518 | 0.55 | 0.34 | 0.497 | 0.314 | 0.359 | 0.399 | 0.295 | 0.961 | 0.889 | 0.362 | 0.292 | 0.2 | 1.02 | 1.07 | 0.513 | 0.317 | 0.265 |
| NCI-H1993 | 0.619 | 0.677 | 0.643 | 0.708 | 0.811 | 0.663 | 0.48 | 0.697 | 0.868 | 0.467 | 0.843 | 0.697 | 0.718 | 0.753 | 0.704 | 0.732 | 0.801 | – | 0.862 | 0.646 |
| NCI-H2009 | 1.28 | 1.13 | 1.21 | 0.995 | 0.885 | 0.325 | 0.212 | 0.304 | 0.248 | 0.141 | 1.28 | 1.25 | 0.919 | 0.973 | 0.373 | 1.07 | 0.962 | 0.817 | 0.681 | 0.311 |
| NCI-H2023 | 0.696 | 0.552 | 0.592 | 0.634 | 0.552 | 0.619 | 0.378 | 0.577 | 0.617 | 0.426 | 0.843 | 0.891 | 0.713 | 0.635 | 0.361 | 0.807 | 0.569 | 0.611 | 0.389 | 0.201 |
